# Measured values from patent publication US20230020161A1, “Tricyclic Modulators of PP2A” (Rappta Therapeutics Oy, priority 2020, published 2023).
# Key:
# LNCaP cells = experiment: Cell viability assay (MTS) in LNCaP cells; type: cell-based; conditions: doses 1 μM to 80 μM
# Experimental: Cell line LNCaP was used for this assay. LNCaP cells were plated in 96-well plates at a density of 5000 cells per well. After 24 hours of plating, cells were treated with increasing doses of compound ranging from 1 μM to 80 μM. Relative cell numbers were analyzed after 48 hours using a 3-(4,5-dimethylthiazol-2-yl)-5-(3-carboxymethoxyphenyl)-2-(4-sulfophenyl)-2H-tetrazolium (MTS) assay (Promega) according to the manufacturer's directions.
# LNCaP cells were treated with increasing doses of Target compound and cell viability was measured at 48 hours by MTS analysis.
# The cell viability data was analyzed with GraphPad Prism software. The values were log transformed and analyzed with nonlinear regression (curve-fit) using log(inhibitor) vs. response variable slope (four parameters) and constraining the bottom to equal zero.
# [1] = target: T1, Human Pregnane X Receptor (PXR, NR1I2) (Homo sapiens, UniProt O75469); experiment: PXR activation assay (Puracyp DPX2-96-001); type: cell-based
# T1 construct: host or cells: DPX2 cells of the kit
# T1 sequence (O75469 1-434): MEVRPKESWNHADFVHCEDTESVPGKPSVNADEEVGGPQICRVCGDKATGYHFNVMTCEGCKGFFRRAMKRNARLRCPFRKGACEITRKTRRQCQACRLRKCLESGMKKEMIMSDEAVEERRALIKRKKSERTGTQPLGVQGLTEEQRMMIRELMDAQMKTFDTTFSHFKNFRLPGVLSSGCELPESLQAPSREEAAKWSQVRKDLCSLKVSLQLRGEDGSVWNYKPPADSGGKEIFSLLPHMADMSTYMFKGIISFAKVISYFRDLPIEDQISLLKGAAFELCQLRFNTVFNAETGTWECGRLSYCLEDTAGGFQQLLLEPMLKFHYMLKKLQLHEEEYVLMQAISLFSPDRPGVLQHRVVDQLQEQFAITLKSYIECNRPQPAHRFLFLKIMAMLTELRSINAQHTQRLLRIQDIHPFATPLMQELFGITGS
# From the text: PXR is a nuclear hormone receptor involved in the transcriptional regulation of a number of metabolic enzymes (e.g. CYP3A4) and transporters (e.g. PGP). Its activation by xenobiotic substances leads to upregulation of those metabolic enzymes and transporters and consequent removal of those substances from systemic circulation. It is not uncommon to find that drugs activate the PXR receptor with problematic consequences. […] In addition, if the drug itself is metabolized by, for example, CYP3A4, then there can be reduced exposure of the drug on repeated administration (auto-induction). It is thus considered beneficial to eliminate or at least minimize PXR activation if drug candidates. For drug series where PXR activation is significant, PXR activation is generally treated as a key criterion for optimization and advancement (V. Chu et al., Drug Metab. Dispos. 37, 1339 (2009).
# PXR activation assay was performed according to manufacturer's instructions (Puracyp, Inc, Catalog #DPX2-96-001).
# [2] = Concentration observed is at 10 μM
"GI50 (LNCaP cells; Homo sapiens, LNCaP, 48 h)","Maximum fold activation observed (Average) [1, 2]","Percent positive control response [1, 2]",GI50 (LNCaP cells; 48 hours),Percent positive control response ([1]; @30 μM),Compound
25.6 µM,4.12,21.2%,–,–,N=[S@@](=O)(N[C@@H]1COC[C@H](N2c3ccccc3Oc3ccccc32)[C@H]1O)c1ccc(OC(F)(F)F)cc1 (relative stereo) [Target T14-2]
–,11,57%,14.2 µM,–,"O=S(=O)(N[C@@H]1COC[C@H](N2c3ccccc3Oc3ccccc32)[C@H]1O)c1ccc(OC(F)(F)F)cc1 [Target T13, reference compound]"
23.6 µM,7.15,41.8%,–,–,CN=[S@@](=O)(N[C@@H]1COC[C@H](N2c3ccccc3Oc3ccccc32)[C@H]1O)c1ccc(OC(F)(F)F)cc1 (relative stereo) [Target T15-2]
8.53 µM,1.79,5.37%,–,–,CN=[S@](=O)(N[C@@H]1COC[C@H](n2c3ccc(Cl)cc3c3cc(Cl)ccc32)[C@H]1O)c1ccc(OC(F)(F)F)cc1 (relative stereo) [Target T18-1]
16.7 µM,4.57,24.2%,–,–,N=[S@](=O)(N[C@@H]1CCC[C@H](N2c3ccccc3Oc3ccccc32)[C@H]1O)c1ccc(OC(F)(F)F)cc1 (relative stereo) [Target T11-1]
24.5 µM,–,–,–,–,"CN=[S@](=O)(NC[C@H](O)CN1c2ccccc2CCc2ccccc21)c1ccc(OC(F)(F)F)cc1 (single isomer, unassigned) [Target T6d2]"
16.6 µM,3.89,19.6%,–,–,CN=[S@](=O)(N[C@@H]1COC[C@H](N2c3ccccc3Oc3ccccc32)[C@H]1O)c1ccc(OC(F)(F)F)cc1 (relative stereo) [Target T15-1]
25.8 µM,–,–,–,–,"N=[S@@](=O)(NC[C@H](O)CN1c2ccccc2CCc2ccccc21)c1ccc(OC(F)(F)F)cc1 (single isomer, unassigned) [Target T5d1]"
10.7 µM,17.3,89.8%,–,–,"O=S(=O)(N[C@@H]1COC[C@H](N2c3ccccc3Oc3ccccc32)[C@H]1O)c1ccc(OC(F)(F)F)cc1 [T10 (DT-061), reference compound]"
22.7 µM,–,–,–,–,"CN=[S@@](=O)(NC[C@H](O)CN1c2ccccc2CCc2ccccc21)c1ccc(OC(F)(F)F)cc1 (single isomer, unassigned) [Target T6d1]"
25.6 µM,6.21,–,–,35.4 @30 μM %,N=[S@](=O)(N[C@@H]1COC[C@H](N2c3ccccc3Oc3ccccc32)[C@H]1O)c1ccc(OC(F)(F)F)cc1 (relative stereo) [Target T14-1]
20.2 µM,–,–,–,–,"N=[S@](=O)(NC[C@H](O)CN1c2ccccc2CCc2ccccc21)c1ccc(OC(F)(F)F)cc1 (single isomer, unassigned) [Target T5d2]"
12.2 µM,2.36,9.23%,–,–,CN=[S@@](=O)(N[C@@H]1COC[C@H](n2c3ccc(Cl)cc3c3cc(Cl)ccc32)[C@H]1O)c1ccc(OC(F)(F)F)cc1 (relative stereo) [Target T18-2]
9.54 µM,–,–,–,–,"O=S(=NCC1CC1)(N[C@@H]1COC[C@H](N2c3ccccc3Oc3ccccc32)[C@H]1O)c1ccc(OC(F)(F)F)cc1 (stereo partly drawn) [Target T15A, N-(cyclopropylmethyl)-N′-((3R,4R,5S)-4-hydroxy-5-(10H-phenoxazin-10-yl)tetrahydro-2H-pyran-3-yl)-4-(trifluoromethoxy) benzenesulfonimidoamide]"
16.8 µM,4.82,26%,–,–,N=[S@@](=O)(N[C@@H]1CCC[C@H](N2c3ccccc3Oc3ccccc32)[C@H]1O)c1ccc(OC(F)(F)F)cc1 (relative stereo) [Target T11-2]
9.64 µM,2.45,9.88%,–,–,N=[S@@](=O)(N[C@@H]1COC[C@H](n2c3ccc(Cl)cc3c3cc(Cl)ccc32)[C@H]1O)c1ccc(OC(F)(F)F)cc1 (relative stereo) [Target T17-2]
10.2 µM,2.43,9.75%,–,–,N=[S@](=O)(N[C@@H]1COC[C@H](n2c3ccc(Cl)cc3c3cc(Cl)ccc32)[C@H]1O)c1ccc(OC(F)(F)F)cc1 (relative stereo) [Target T17-1]
55.4 µM,–,–,–,–,"CCCN=S(=O)(N[C@@H]1COC[C@H](N2c3ccccc3Oc3ccccc32)[C@H]1O)c1ccc(OC(F)(F)F)cc1 (stereo partly drawn) [Target T15C, N-((3R,4R,5S)-4-hydroxy-5-(10H-phenoxazin-10-yl)tetrahydro-2H-pyran-3-yl)-N′-propyl-4-(trifluoromethoxy) benzenesulfonimidoamide]"
8.2 µM,3.93,16.7%,–,–,"O=S(=O)(N[C@@H]1COC[C@H](n2c3ccc(Cl)cc3c3cc(Cl)ccc32)[C@H]1O)c1ccc(OC(F)(F)F)cc1 [Target T16, reference compound]"
